Assay results reported in article PMC7464559, “Synthesis, Optimization, Antifungal Activity, Selectivity, and CYP51 Binding of New 2-Aryl-3-azolyl-1-indolyl-propan-2-ols” (Pharmaceuticals, 2020).
In brackets after ≈: the same amount, converted by molar mass.

How the values were obtained:
aromatase (CYP19) = target: T1, aromatase (CYP19) (Homo sapiens, UniProt P11511); assay: In vitro inhibition of aromatase; type: biochemical; settings: at 36 µM
T1 construct: Microsomal protein (0.1 mg) was added to start the reaction; from tissue; host or cells: microsomes; ('human placental microsomes')
T1 sequence (P11511 1-503): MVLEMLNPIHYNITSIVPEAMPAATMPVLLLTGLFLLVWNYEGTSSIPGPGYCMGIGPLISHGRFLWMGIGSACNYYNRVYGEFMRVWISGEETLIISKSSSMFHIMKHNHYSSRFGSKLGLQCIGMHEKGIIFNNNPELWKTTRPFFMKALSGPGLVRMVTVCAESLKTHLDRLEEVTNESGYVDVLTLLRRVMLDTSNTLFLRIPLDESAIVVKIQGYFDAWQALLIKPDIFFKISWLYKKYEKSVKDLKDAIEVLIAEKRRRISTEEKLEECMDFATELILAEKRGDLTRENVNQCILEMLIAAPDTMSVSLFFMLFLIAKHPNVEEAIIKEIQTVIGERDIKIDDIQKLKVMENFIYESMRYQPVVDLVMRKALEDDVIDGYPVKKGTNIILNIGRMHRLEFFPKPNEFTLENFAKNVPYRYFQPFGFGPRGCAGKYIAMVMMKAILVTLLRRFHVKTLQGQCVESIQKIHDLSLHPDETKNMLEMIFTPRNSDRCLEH
Experimental: The assay was performed according to previously described methods [49, 50, 51] by monitoring the enzyme activity by measuring the ^3H2O formed from [1β-^3H]androstenedione during aromatization. […] Microsomal protein (0.1 mg) was added to start the reaction. After incubation of 15 min at 30 °C, the reaction was stopped by adding 200 µL of a cold HgCl2 solution (1 mM). After the addition of 200 µL of an aqueous dextran-coated charcoal (DCC) suspension (2%), the vials were shaken then centrifuged to separate the charcoal-absorbed steroids. Aliquots of the supernatant were assayed for ^3H2O by counting in a scintillation mixture using a LKB-Wallac β-counter.

[1] = system: ATCC90018 Candida parapsilosis strain; assay: Anti-Candida in vitro assay, ATCC90018; type: cell-based; settings: Lodderomyces parapsilosis; Candida parapsilosis ATCC90018, mean of triplicate; read-out: MIC (IC80) ATCC90018
Experimental: (§1) Test fungal strains were obtained from the American Type Culture Collection (ATCC) or were clinical isolates from the Laboratory of Parasitology and Medical Mycology, Centre Hospitalier Universitaire (CHU) of Nantes. The strains were maintained on Sabouraud agar slants and were subcultured 24 h before used. The activity of the target compounds 8a–g and 11a–m was determined by the method previously described. Briefly, molecules were diluted in RPMI 1640 medium supplemented with 0.165 M morpholinopropanesulphonic acid (Sigma-Aldrich, Saint-Quentin Fallavier, France), 2% glucose, and antibiotics. Candida suspensions were prepared in RPMI 1640 medium (Sigma-Aldrich, Saint-Quentin Fallavier, France) adjusted to give a final concentration of 10^3 cells/mL, and a 96-well microplate (Nunc, D. Dutscher, Brumath, France) was seeded with 100 µL. Each concentration of molecules (100 µL) to be tested was added (in triplicate) and plates were incubated at 37 °C for 24 h. The cellular viability was evaluated on the Fluorolite 1000 (Dynatech, France) with an excitation at 550 nm and an emission at 590 nm after a 4 h incubation with 10 µL of Alamar Blue®. […] MIC was expressed as the mean of the triplicate values. KTC and FLC were used as standards.

CK98002 (Candida krusei) = assay: Anti-Candida in vitro assay, CK98002; type: cell-based; settings: Pichia kudriavzevii; Candida krusei CK98002, mean of triplicate; read-out: MIC (IC80) CK98002
Experimental: as §1

[2] = system: ATCC2091 Candida albicans strain; assay: Anti-Candida in vitro assay, ATCC2091; type: cell-based; settings: Candida albicans ATCC2091, mean of triplicate; read-out: MIC (IC80) ATCC2091
Experimental: as §1

[3] = system: CL98001 (Candida lusitaniae); assay: Anti-Candida in vitro assay, CL98001; type: cell-based; settings: Clavispora lusitaniae; Candida lusitaniae CL98001, mean of triplicate; read-out: MIC (IC80) CL98001
Experimental: as §1

[4] = system: ATCC6258 Candida krusei strain; assay: Anti-Candida in vitro assay, ATCC6258; type: cell-based; settings: Pichia kudriavzevii; Candida krusei ATCC6258, mean of triplicate; read-out: MIC (IC80) ATCC6258
Experimental: as §1

C. albicans CA98001 = assay: Anti-Candida in vitro assay (Alamar Blue), C. albicans CA98001; type: cell-based; settings: for MIC: Candida albicans, CA98001, 24 h, MIC = IC80, 24 h at 37 °C, mean of triplicate; for Times more active than FLC against C. albicans CA98001: ratio of MIC values versus FLC
Experimental: as §1

CK98003 (Candida krusei) = assay: Anti-Candida in vitro assay, CK98003; type: cell-based; settings: Pichia kudriavzevii; Candida krusei CK98003, mean of triplicate; read-out: MIC (IC80) CK98003
Experimental: as §1

[5] = system: CA98005 (Candida albicans); assay: Anti-Candida in vitro assay, CA98005; type: cell-based; settings: Candida albicans CA98005, mean of triplicate; read-out: MIC (IC80) CA98005
Experimental: as §1

| inhibition at 36 µM (aromatase (CYP19)) | MIC [1] | MIC (CK98002 (Candida krusei)) | MIC [2] | MIC [3] | MIC [4] | MIC (C. albicans CA98001) | MIC (CK98003 (Candida krusei)) | MIC [5] | Structure (SMILES) | Times more active than FLC against C. albicans CA98001 (C. albicans CA98001) |
| --- | --- | --- | --- | --- | --- | --- | --- | --- | --- | --- |
| 51% | > 38.7 µg/mL | 22.1 µg/mL (≈ 57 µM) | 1.01 µg/mL (≈ 2.6 µM) | 9.68 µg/mL (≈ 25 µM) | 24.4 µg/mL (≈ 63 µM) | 23 ng/mL (≈ 0.0594 µM) | 19.4 µg/mL (≈ 50 µM) | 2.71 µg/mL (≈ 6.99 µM) | O[C@@](Cn1cncn1)(Cn1ccc2ccccc21)c1ccc(Cl)cc1Cl [(+)-(R)-8g] |  |
| 27% | 0.15 µg/mL (≈ 0.387 µM) | 2.79 µg/mL (≈ 7.2 µM) | < 0.004 µg/mL | < 0.004 µg/mL | 0.08 µg/mL (≈ 0.207 µM) | 0.259 ng/mL (≈ 0.000669 µM) | 3.56 µg/mL (≈ 9.2 µM) | < 0.004 µg/mL | OC(Cn1cncn1)(Cn1ccc2ccccc21)c1ccc(Cl)cc1Cl (centres unmarked) [Compound 8g, 2-(2,4-Dichlorophenyl)-3-(1H-indol-1-yl)-1-(1H-1,2,4-triazol-1-yl)-propan-2-ol] | ≈ 80 |
| 72% | 0.027 µg/mL (≈ 0.0697 µM) | 0.022 µg/mL (≈ 0.0568 µM) | < 0.039 µg/mL | 0.024 µg/mL (≈ 0.062 µM) | 0.167 µg/mL (≈ 0.431 µM) | 0.256 ng/mL (≈ 0.000661 µM) | 0.039 µg/mL (≈ 0.101 µM) | 0.026 µg/mL (≈ 0.0671 µM) | O[C@](Cn1cncn1)(Cn1ccc2ccccc21)c1ccc(Cl)cc1Cl [(−)-(S)-8g] | ≈ 80 |
